In patent US7902327B2, “Dendrimeric peptides, pharmaceutical compositions and methods of using the same” (New York University School of Medicine, priority 2007, dated 2011):
≈ marks a conversion by molar mass, not a printed value. Like-named read-outs stand apart in the source and are kept apart here. Where a SMILES comes first, the peptide text is derived from it. Side-chain parts run from the residue outwards. [ ]: non-standard residue; d: D form. The star is where a group is joined. Lys(α,ε-(ArgTrp)2) = N=C(N)NCCC[C@H](N)C(=O)N[C@@H](Cc1c[nH]c2ccccc12)C(=O)NCCCC[C@H](NC(=O)[C@H](Cc1c[nH]c2ccccc12)NC(=O)[C@@H](N)CCCNC(=N)N)C(=O)*; NHBn = c1ccc(CN*)cc1; OBn = c1ccc(CO*)cc1; X1 = CCCCCCCCCN*; βAla = NCCC(=O)O

Assays:
[1] = tested on: ampicillin- and streptomycin-resistant E. coli (D31); settings: for MIC50 E. coli D31: salt not stated
[2] = tested on: E. coli
[3] = tested on: multi-drug resistant strain S. aureus
[4] = tested on: B. Subtilis (ATCC 6633)
[5] = tested on: B. anthracis (32F2 Sterne)
[6] = tested on: Acinetobacter. baumannii (ATCC BAA-747)
[7] = tested on: E. coli RP437 biofilms; assay: biofilm assay on stainless steel coupons with LIVE/DEAD staining; format: cell-based; settings: for Biofilm coefficients: Dead cells / Biofilm coefficients: Live cells / Biofilm coefficients: Total biofilms: 24 hours
Description: The stainless steel (S.S.) coupons were polished using a fine 3M SandBlaster sandpaper, then autoclaved for sterilization. […] For all the treatments, duplicate coupons were tested. To analyze the E. coli biofilms using fluorescence microscopy, the biofilms were stained with […] bacterial viability kit (Cat# L7012, Invitrogen Corporation, California). Each S.S. coupon was washed gently by dipping vertically in 0.85% NaCl buffer three times (change to fresh buffer after each dipping). Then, they were soaked in 1 mL of 0.85% NaCl buffer containing 3 μl of staining component A and B (1:4) in the dark for 15 mins. Images were taken by AXIO Imager.M1 (Carl Zeiss, German). Five images were taken for each sample. Data were obtained and are presented in Table 3, below, as well as in FIG. 5.

[8] = tested on: E. coli RP437 biofilms; assay: CFU assay of biofilm inhibition; format: cell-based; settings: 25 μg/mL, 24 hours
Description: Twenty-four hour biofilms of E. coli RP437 were grown on stainless steel coupons in LB medium containing up to 100 μg/mL of the three antimicrobial peptides—dendrimer, hexamer, and octamer. CFU counts were used to determine the extent of inhibition. The procedure of the study is as follows.
Overnight cultures of E. coli RP437 grown in LB medium were used to inoculate 5 mL of LB supplemented with up to 100 μg/mL of each peptide and polished, sterile 316L stainless steel coupons (1.2 cm×0.6 cm×0.1 cm). The cultures were incubated at 37° C. for 24 hours. The coupons were then removed from the bacterial culture using sterile forceps and washed three times in 0.85% NaCl buffer and placed in round-bottom tubes containing 3 mL of fresh NaCl buffer. These were then sonicated for 1.5 minutes in a water bath. The NaCl buffer containing bacterial cells was serially diluted and 60 μL of 1000 and 5000 fold dilutions were plated on LB agar plates. The plates were incubated at 37° C. overnight. The number of CFUs for each sample was counted after incubation. The experiment was conducted in duplicate.

[9] = tested on: fresh sheep erythrocytes; assay: hemolytic assay; format: cell-based; settings: sheep erythrocytes, 37° C., 30 minutes
Description: Hemolytic activity of model peptides was assessed on fresh sheep erythrocytes (Fitzgerald Inc., Concord, Mass.). […] The resulting supernatant was diluted by a factor of 40 in distilled water. The absorbances of the supernatant at λ=540 nm (OD540) were measured in the UV Spectrophotometer. […] Hemolytic index (HI) was defined as HI═HD50/IC50.

[10] = tested on: E. faecalis (29212)
[11] = tested on: three other gram-positive bacteria
[12] = tested on: gram-positive MRSA; assay: LIVE/DEAD staining assay, membrane damage; format: cell-based; settings: 1 hr incubation; (RW)4D 10 uM
[13] = tested on: gram-negative A. baumannii; assay: LIVE/DEAD staining assay, membrane damage; format: cell-based; settings: 1 hr incubation; (RW)4D 10 uM

N=C(N)NCCC[C@H](N)C(=O)N[C@@H](Cc1c[nH]c2ccccc12)C(=O)NCCCC[C@H](NC(=O)[C@H](Cc1c[nH]c2ccccc12)NC(=O)[C@@H](N)CCCNC(=N)N)C(=O)NCCCC[C@H](NC(=O)[C@H](CCCCNC(=O)[C@H](Cc1c[nH]c2ccccc12)NC(=O)[C@@H](N)CCCNC(=N)N)NC(=O)[C@H](Cc1c[nH]c2ccccc12)NC(=O)[C@@H](N)CCCNC(=N)N)C(=O)NCCC(=O)NCc1ccccc1 [(RW)4D-Benzyl amine] (H-RWK([Trp-Arg])K(Lys(α,ε-(ArgTrp)2))[βAla]-NHBn)
MIC50 E. coli D31 [1]: 21.3 µg/mL
MIC50 E. coli [2]: 12.8 µg/mL (≈ 6.62 µM)
MIC50 S. aureus ([3]; salt not stated): 37.8 µg/mL
MIC50 B. subtilis ([4]; ATCC 6633): 5.0 µg/mL (≈ 2.59 µM)
MIC50 B. anthracis [5]: 34.8 µg/mL (≈ 18 µM)
MIC50 A. baumannii [6]: 121 µg/mL (≈ 62.6 µM)

N=C(N)NCCC[C@H](N)C(=O)N[C@@H](Cc1c[nH]c2ccccc12)C(=O)NCCCC[C@H](NC(=O)[C@H](Cc1c[nH]c2ccccc12)NC(=O)[C@@H](N)CCCNC(=N)N)C(=O)NCCCC[C@H](NC(=O)[C@H](CCCCNC(=O)[C@H](Cc1c[nH]c2ccccc12)NC(=O)[C@@H](N)CCCNC(=N)N)NC(=O)[C@H](Cc1c[nH]c2ccccc12)NC(=O)[C@@H](N)CCCNC(=N)N)C(=O)NCCC(=O)OCc1ccccc1 [(RW)4D-Benzyl ester] (H-RWK([Trp-Arg])K(Lys(α,ε-(ArgTrp)2))[βAla]-OBn)
MIC50 E. coli D31 [1]: 29.7 µg/mL
MIC50 E. coli [2]: 14.3 µg/mL (≈ 7.4 µM)
MIC50 S. aureus ([3]; salt not stated): 19.6 µg/mL
MIC50 B. subtilis ([4]; ATCC 6633): 6.8 µg/mL (≈ 3.52 µM)
MIC50 B. anthracis [5]: 34.2 µg/mL (≈ 17.7 µM)
MIC50 A. baumannii [6]: 78.7 µg/mL (≈ 40.7 µM)

CCCCCCCCCNC(=O)CCNC(=O)[C@H](CCCCNC(=O)[C@H](CCCCNC(=O)[C@H](Cc1c[nH]c2ccccc12)NC(=O)[C@@H](N)CCCNC(=N)N)NC(=O)[C@H](Cc1c[nH]c2ccccc12)NC(=O)[C@@H](N)CCCNC(=N)N)NC(=O)[C@H](CCCCNC(=O)[C@H](Cc1c[nH]c2ccccc12)NC(=O)[C@@H](N)CCCNC(=N)N)NC(=O)[C@H](Cc1c[nH]c2ccccc12)NC(=O)[C@@H](N)CCCNC(=N)N [(RW)4D-Nonylamine] (H-RWK([Trp-Arg])K(Lys(α,ε-(ArgTrp)2))[βAla]-X1)
MIC50 E. coli D31 [1]: 26.7 µg/mL
MIC50 E. coli [2]: 15.8 µg/mL (≈ 8.03 µM)
MIC50 S. aureus ([3]; salt not stated): 21.6 µg/mL
MIC50 B. subtilis ([4]; ATCC 6633): 6.5 µg/mL (≈ 3.3 µM)
MIC50 B. anthracis [5]: 31.8 µg/mL (≈ 16.2 µM)
MIC50 A. baumannii [6]: 75.2 µg/mL (≈ 38.2 µM)

N=C(N)NCCC[C@H](N)C(=O)N[C@@H](Cc1ccc(O)cc1)C(=O)NCCCC[C@H](NC(=O)[C@H](Cc1ccc(O)cc1)NC(=O)[C@@H](N)CCCNC(=N)N)C(=O)NCCCC[C@H](NC(=O)[C@H](CCCCNC(=O)[C@H](Cc1ccc(O)cc1)NC(=O)[C@@H](N)CCCNC(=N)N)NC(=O)[C@H](Cc1ccc(O)cc1)NC(=O)[C@@H](N)CCCNC(=N)N)C(=O)NCCC(N)=O [Den(RY)4D]
MIC50 E. coli [2]: 12.6 µg/mL (≈ 7.2 µM)
MIC50 S. aureus ([3]; salt not stated): 45.7 µg/mL
MIC50 A. baumannii [6]: 193 µg/mL (≈ 110 µM)

N=C(N)NCCC[C@H](N)C(=O)N[C@@H](Cc1c[nH]c2ccccc12)C(=O)NCCCC[C@H](NC(=O)[C@H](Cc1c[nH]c2ccccc12)NC(=O)[C@@H](N)CCCNC(=N)N)C(=O)NCCCC[C@H](NC(=O)[C@H](CCCCNC(=O)[C@H](Cc1c[nH]c2ccccc12)NC(=O)[C@@H](N)CCCNC(=N)N)NC(=O)[C@H](Cc1c[nH]c2ccccc12)NC(=O)[C@@H](N)CCCNC(=N)N)C(=O)NCCC(N)=O [Dendrimer] (H-RWK([Trp-Arg])K(Lys(α,ε-(ArgTrp)2))[βAla]-NH2; N-terminus and C-terminus assumed)
Total biofilm formation compared with blank control (ANOVA) ([7]; 25 μg/mL): significantly reduced
Biofilm coefficients: Dead cells ([7]; 25 μg/mL): 7.11% ± 1.93%
Biofilm coefficients: Live cells ([7]; 25 μg/mL): 4.42% ± 2.30%
Biofilm coefficients: Total biofilms ([7]; 25 μg/mL): 11.16% ± 3.09%
Total biofilm formation compared with blank control (ANOVA) ([7]; 50 μg/mL): significantly reduced
Biofilm coefficients: Dead cells ([7]; 50 μg/mL): 5.05% ± 1.47%
Biofilm coefficients: Live cells ([7]; 50 μg/mL): 2.32% ± 1.12%
Biofilm coefficients: Total biofilms ([7]; 50 μg/mL): 7.06% ± 1.91%
reduction of viable biofilm cell counts [8]: ineffective

CC[C@H](C)[C@H](N)C(=O)N[C@@H](CC(C)C)C(=O)N1CCC[C@H]1C(=O)N[C@@H](Cc1c[nH]c2ccccc12)C(=O)N[C@@H](CCCCN)C(=O)N[C@@H](Cc1c[nH]c2ccccc12)C(=O)N1CCC[C@H]1C(=O)N[C@@H](Cc1c[nH]c2ccccc12)C(=O)N[C@@H](Cc1c[nH]c2ccccc12)C(=O)N1CCC[C@H]1C(=O)N[C@@H](Cc1c[nH]c2ccccc12)C(=O)N[C@@H](CCCNC(=N)N)C(=O)N[C@@H](CCCNC(=N)N)C(N)=O [Indolicidin, reference compound]
HD50 (peptide concentration corresponding to 50% hemolysis) [9]: 293 µg/mL
increase in MIC50 value from no salt to high-salt condition ([1]; E. coli and S. aureus, 0 to 150 mM NaCl): > 100%
MIC50 B. subtilis ([4]; ATCC 6633): 1.0 µg/mL (≈ 0.525 µM)
MIC50 B. anthracis ([5]; 32F2 Sterne): 8.2 µg/mL (≈ 4.3 µM)
MIC50 E. faecalis [10]; 29212: 1.6 µg/mL (≈ 0.839 µM)
mean MIC50 against all test organisms [11]: 3.6 µg/mL

CN[C@H](CC(C)C)C(=O)N[C@H]1C(=O)N[C@@H](CC(N)=O)C(=O)N[C@H]2C(=O)N[C@H]3C(=O)N[C@H](C(=O)N[C@H](C(=O)O)c4cc(O)cc(O)c4-c4cc3ccc4O)[C@H](O)c3ccc(c(Cl)c3)Oc3cc2cc(c3O[C@@H]2O[C@H](CO)[C@@H](O)[C@H](O)[C@H]2O[C@H]2C[C@](C)(N)[C@H](O)[C@H](C)O2)Oc2ccc(cc2Cl)[C@H]1O [vancomycin, reference compound]
membrane damage / killing by Live/Dead staining [12]: did not actively kill
membrane damage / killing by Live/Dead staining [13]: did not actively kill

Gentamicin [reference compound]
HD50 (peptide concentration corresponding to 50% hemolysis) [9]: >2000 µg/mL
MIC50 E. coli ([1]; 0 mM NaCl): 1.2 µg/mL
MIC50 E. coli ([1]; 75 mM NaCl): 1.2 µg/mL
MIC50 E. coli ([1]; 150 mM NaCl): 1.2 µg/mL
MIC50 S. aureus ([3]; 0 mM NaCl): 51 µg/mL
MIC50 S. aureus ([3]; 75 mM NaCl): 51 µg/mL
MIC50 S. aureus ([3]; 150 mM NaCl): 51 µg/mL
MIC50 B. subtilis [4]: 0.32 µg/mL
MIC50 B. anthracis [5]: 3.1 µg/mL
MIC50 E. faecalis [10]: 0.36 µg/mL
